# In patent US8927560B2, “4-Aza-2, 3-didehydropodophyllotoxin compounds and process for the preparation thereof” (Council of Scientific & Industrial Research, priority 2010, dated 2015):
# Experiments:
# Hop62 = assay: SRB in vitro cytotoxicity assay, Hop62 lung cancer cells; format: cell-based; settings: Homo sapiens, HOP-62, 48 h drug exposure, read-out: In vitro anticancer activity GI50, Lung Hop62
# Description: (§1) Compounds 4a-4z and 4aa-4ae have been evaluated for their in vitro cytotoxicity in selected human cancer cell lines i.e., colon (Colo205), lung (Hop-62, A549), cervix (SiHa), prostate (PC3), oral (KB, DWD, Gurav), Ovarian (A-2780) and breast (MCF7, Zr-75-1) origin by employing the sulforhodamine B (SRB) assay method (Skehn, P.; Storeng, R.; Scudiero, A.; Monks, J.; MeMohan, D.; Vistica, D.; Jonathan, T. W.; Bokesch, H.; Kenney, S.; Boyd M. R. J. Natl. Cancer Inst. 1990, 82, 1107).
# (§2) The synthesized compounds have been evaluated for their in vitro cytotoxicity in human cancer cell lines. A protocol of 48 h continuous drug exposure has been used and a sulforhodamine B (SRB) protein assay has been used to estimate cell viability or growth. The cell lines were grown in DMEM medium containing 10% fetal bovine serum and 2 mM L-glutamine and were inoculated into 96 well microtiter plates in […] at plating densities depending on the doubling time of individual cell lines. The microliter plates were incubated at 37_C, 5% CO2, 95% air, and 100% relative humidity for 24 h prior to addition of experimental drugs. Aliquots of […] of the drug dilutions were added to the appropriate microliter wells already containing […] of cells, suiting in the required final drug concentrations. For each compound four concentrations (0.1, 1, 10 and 100 uM) were evaluated and each was done in triplicate wells. Plates were incubated further for 48 h and assay was terminated by the addition of […] of cold trichloro acetic acid (TCA) (final concentration, 10% TCA) and incubated for 60 min at 4_C. The plates were washed five times with tap water and airdried. Sulforhodamine B (SRB) solution ([…]) at 0.4% (w/v) in 1% acetic acid was added to each of the cells, and plates were incubated for 20 min at room temperature. The residual dye was removed by washing five times with 1% acetic acid. The plates were airdried. Bound stain was subsequently eluted with 10 mM trizma base, and the absorbance was read on an ELISA plate reader at a wavelength of 540 nm with 690 nm reference wavelengths. Percent growth was calculated on a plate by plate basis for test wells relative to control wells. The above determinations were repeated three times. Percentage growth was expressed as the (ratio of average absorbance of the test well to the average absorbance of the control wells)*100. Growth inhibition of 50% (GI50) was calculated from [(Ti−Tz)/(C−Tz)]*100 ¼ 50, which is the drug concentration resulting in a 50% reduction in the net protein increase (as measured by SRB staining) in control cells during the drug incubation. Where, Tz ¼ Optical density at time zero, OD of control ¼ C, and OD of test growth in the presence of drug ¼ Ti.
# KB = assay: SRB in vitro cytotoxicity assay, KB oral cancer cells; format: cell-based; settings: Homo sapiens, 48 h drug exposure, read-out: In vitro anticancer activity GI50, Oral KB
# Description: as §1, §2
# MCF7 = assay: SRB in vitro cytotoxicity assay, MCF7 breast cancer cells; format: cell-based; settings: Homo sapiens, 48 h drug exposure, read-out: In vitro anticancer activity GI50, Breast MCF7
# Description: as §1, §2
# A-549 = assay: SRB in vitro cytotoxicity assay, A-549 lung cancer cells; format: cell-based; settings: Homo sapiens, A549, 48 h drug exposure, read-out: In vitro anticancer activity GI50, Lung A-549
# Description: as §1, §2
# Colo 205 = assay: SRB in vitro cytotoxicity assay, Colo 205 colon cancer cells; format: cell-based; settings: Homo sapiens, 48 h drug exposure, read-out: In vitro anticancer activity GI50, Colon Colo 205
# Description: as §1, §2
melting point,Structure (SMILES),GI50 (Hop62),GI50 (MCF7),further results
245 to 246 °C,"COc1ccc(C2C3=C(COC3=O)Nc3onc(-c4ccc(Cl)cc4)c32)cc1O (stereo not drawn) [Compound 4ad, 3-(4-chlorophenyl)-4-(3-hydroxy-4-methoxyphenyl)-4,5,7,8-tetrahydrofuro[3′,4′:5,6]pyrido[3,2-d]isoxazol-5-one]",–,–,GI50 (KB): 2700 nM
294 to 296 °C,"COc1nc2c(c(OC)n1)C(c1ccc(O)c(OC)c1)C1=C(COC1=O)N2 (stereo not drawn) [Compound 4b, 5-(4-hydroxy-3-methoxyphenyl)-2,4-dimethoxy-5,6,8,9-tetrahydrofuro[3′,4′:5,6]pyrido[2,3-d]pyrimidin-6-one]",2700 nM,–,–
284 to 285 °C,"COc1nc2c(c(OC)n1)C(c1ccc(OC)c(O)c1)C1=C(COC1=O)N2 (stereo not drawn) [Compound 4c, 5-(3-hydroxy-4-methoxyphenyl)-2,4-dimethoxy-5,6,8,9-tetrahydrofuro[3′,4′:5,6]pyrido[2,3-d]pyrimidin-6-one]",2800 nM,–,–
267 to 270 °C,"COc1nc2c(c(OC)n1)C(c1ccc(F)c(OC)c1)C1=C(COC1=O)N2 (stereo not drawn) [Compound 4d, 5-(4-fluoro-3-methoxyphenyl)-2,4-dimethoxy-5,6,8,9-tetrahydrofuro[3′,4′:5,6]pyrido[2,3-d]pyrimidin-6-one]",–,–,GI50 (A-549): 2600 nM; GI50 (KB): 2200 nM
–,"COc1ccc(C2C3=C(COC3=O)Nc3ccc4cc[nH]c4c32)cc1[N+](=O)[O-] (stereo not drawn) [Compound 4i, 10-(4-methoxy-3-nitrophenyl)-6,7,9,10-tetrahydro-1H-furo[3,4-b]pyrrolo[2,3-f]quinolin-9-one]",–,–,GI50 (Colo 205): 2400 nM
205 to 207 °C,"COc1ccc(C2C3=C(COC3=O)Nc3ccc4cc(C)[nH]c4c32)c(F)c1 (stereo not drawn) [Compound 4m, 10-(2-fluoro-4-methoxyphenyl)-2-methyl-6,7,9,10-tetrahydro-1H-furo[3,4-b]pyrrolo[2,3-f]quinolin-9-one]",–,< 100 nM,–
243 to 245 °C,"COc1ccc(C2C3=C(COC3=O)Nc3ccc4cn[nH]c4c32)cc1O (stereo not drawn) [Compound 4p, 10-(3-hydroxy-4-methoxyphenyl)-6,7,9,10-tetrahydro-1H-furo[3,4-b]pyrazolo[3,4-f]quinolin-9-one]",2600 nM,–,GI50 (Colo 205): 2600 nM
190 to 191 °C,"COc1cc(C2C3=C(COC3=O)Nc3ccc4nc(C)sc4c32)ccc1[N+](=O)[O-] (stereo not drawn) [Compound 4w, 10-(3-methoxy-4-nitrophenyl)-2-methyl-6,7,9,10-tetrahydrofuro[3,4-b][1,3]thiazolo[5,4-f]quinolin-9-one]",–,150 nM,–
308 to 310 °C,"COc1ccc(C2C3=C(COC3=O)Nc3ccc4nn[nH]c4c32)c(F)c1 (stereo not drawn) [Compound 4z, 10-(2-fluoro-4-methoxyphenyl)-6,7,9,10-tetrahydro-1H-furo[3,4-b][1,2,3]triazolo[4,5-f]quinolin-9-one]",–,< 100 nM,–

Structure (SMILES),melting point,GI50 (Hop62),GI50 (MCF7),further results
"COc1ccc(-c2noc3c2C(c2cc(OC)c(OC)c(OC)c2)C2=C(COC2=O)N3)cc1 (stereo not drawn) [Compound 4aa, 3-(4-methoxyphenyl)-4-(3,4,5-trimethoxyphenyl)-4,5,7,8 tetrahydrofuro[3′,4′:5,6]pyrido[3,2-d]isoxazol-5-one]",218 to 219 °C,2500 nM,–,–
"COc1cc(C2C3=C(COC3=O)Nc3c2cc(OC)c(OC)c3OC)ccc1O (stereo not drawn) [Compound 4ae, 9-(4-hydroxy-3-methoxyphenyl)-5,6,7-trimethoxy-1,3,4,9-tetrahydrofuro[3,4-b]quinolin-1-one]",290 to 291 °C,–,2900 nM,–
"COc1ccc(C2C3=C(COC3=O)Nc3ccc4nc(S)[nH]c4c32)cc1O (stereo not drawn) [Compound 4x, 10-(3-hydroxy-4-methoxyphenyl)-2-sulfanyl-6,7,9,10-tetrahydro-1H-furo[3,4-b]imidazo[4,5-f]quinolin-9-one]",334 to 337 °C,–,2700 nM,–
"COc1cc(C2C3=C(COC3=O)Nc3ccc4nn[nH]c4c32)cc(OC)c1OC (stereo not drawn) [Compound 4y, 10-(3,4,5-trimethoxyphenyl)-6,7,9,10-tetrahydro-1H-furo[3,4-b][1,2,3]triazolo[4,5-f]quinolin-9-one]",324 to 325 °C,–,–,GI50 (KB): 2900 nM
